Experimental data: patent US4518611A, “2-Furylbutyrolactone modulation of the immune system in mammals” (priority 1983, dated 1985)
Entries after “also recorded” stand apart in the source; their conditions may differ.

Experiments:
L5178Y target cells = assay: MLTC assay of cytotoxic lymphocyte (CTL) activity, L5178Y target cells; assay type: cell-based, mouse, DBA/2; conditions: for CTL activity (in words): with or without stimulator cells, any E/T ratio
Excerpt: A mixed lymphocyte tumor culture (MLTC) immunoassay, used to determine the cytotoxic lymphocyte (CTL) activity employs lymphocytes from either immunized (sensitized) mice or DBA/2 tumor dormant state animals in various stages of the tumor dormant state (TDS). The assay employs L5178Y target cells labeled with ^51 Chromium and effector cells (sensitized lymphocytes) from the above-mentioned sources. Effector-target cell ratios will vary with different experimental conditions and may or may not include irradiated stimulator L5178Y cells. Results are expressed as % lysis of target cells based on ratio of cpm of test group over cpm of total release (maximum) both of which are corrected for spontaneous release of ^51 Cr. The assay can be performed as an 8 or 18 hour release assay.
Ten days later the resultant tumor nodule, about 1 cm in size, is surgically excised. If the excision was successful, no subcutaneous tumors develop at the site of implantation. […] These mice are considered to be in the tumor dormant state. […]
DBA/2 mice in the early stage of TDS, prior to challenge with viable L5178Y tumor cells, were used to measure the effect of Cpd. 2 on CTL activity. Cpd. 2, 0.1, 1.0, 10 or 100 μg/ml, or just buffer was added in 100 ul volumes to MLTC microculture wells containing washed spleen lymphocytes from DBA/2 mice, effector, and L5178Y target cells at varying ^E /T ratios. The MLTC reaction was performed in the presence or absence of irradiated L5178Y stimulator cells. […]

spleen lymphocytes = assay: In vitro lymphocyte stimulation assay, C57BL/6 spleen lymphocytes; assay type: cell-based, mouse
Method: The purpose of this assay is to challenge lymphocytes in microcultures with one or more polyclonal mitogens at concentrations that will induce mitogenesis within 72 hours of stimulation.
In the mouse model, spleens are removed from different strains of mice and the spleen cells are teased free and suspended in RPMI-1640 tissue culture medium at a concentration of usually […]. These cells are dispensed at a concentration of 5.0×10^5 cells per microculture well in a 96 well flat bottom 96 well tissue culture plate. All testing of the compounds of this invention or mitogens are done in replicates of 10. The cells are then treated with PHA, Con-A, specific antigens, or buffer only. If in vitro testing is done, varying concentrations of the compounds of this invention or buffer only are added to the cells as well. After treatment with the mitogens and/or compounds of this invention, the cells are incubated for 72 hours. The response of these cells to mitogens and/or the compounds of this invention is assessed using ^14 C-thymidine labeling on the fourth day at a concentration of 0.01 μCi/well. The labeled cells are harvested using a lymphocyte harvestor and placed onto fibrous paper discs. A scintillation cocktail is added to vials containing the discs and the results are obtained using a LKB-liquid scintillation counter (Model 1216/Rackbeta II). The data is expressed as a ratio of the cpm of the mitogen stimulated group to the control (nonmitogen) treated group=lymphocyte stimulation index (LSI).
The lymphocyte stimulation assay may be performed directly on spleen cells obtained from various strains of mice not treated with the compounds of this invention or on lymphocytes obtained from human […]. […] Alternatively, the mice may be treated in vivo with the compounds of this invention by intraperitoneal multi-dose schedules, followed by sacrifice and harvesting spleen lymphocytes. These cells are then tested for their response to polyclonal mitogens or specific antigens used to immunize the mice. In this system however, no additional compound is added to the in vitro lymphocyte stimulation assay system.
An in vitro lymphocyte stimulation assay is performed directly on normal spleen lymphocytes removed from five normal C57BL/6 mice, using concentrations of Cpd. […] Following three days of incubation the assay is completed.
An in vitro lymphocyte stimulation assay was performed using spleen lymphocytes from normal C57BL/6 mice. The lymphocytes were treated with either 1, 5, 10, 50 or 100 μg/well of Cpd. 1 or buffer.
Cpd. 2 was tested using normal spleen lymphocytes from C57BL/6 mice. A lymphocyte stimulation assay was conducted using either 1, 5, 10, 50, or 100 μg/well […] or just buffer.
Spleen cells from C57BL/6 mice were treated, in vitro, with the crystallizing reagents, succinic acid and succinimide. Since these compounds are spontaneously released from the molecular complex in solution at a molar ratio of 2 moles of Cpds. 1, 2, or 3 per mole of the crystalline reagent, these reagents were treated in the lymphocyte stimulation assay at proper molar concentrations.
The compound of example 3, Cpd. 3, was used to treat C57BL/6 spleen lymphocytes in vitro. The lymphocytes were treated with either 1, 5, 10, 50, or 100 μg/well of Cpd. 3 or just buffer and then a lymphocyte stimulation assay was performed.

Compound: Cc1ccc(C2(O)C(=O)OC3C(O)COC32O)o1.Cc1ccc(C2(O)C(=O)OC3C(O)COC32O)o1.O=C1CCC(=O)O1 (stereo not shown) [Cpd. 1, 2-furylbutyrolactone:succinic anhydride]
- % Lysis (L5178Y target cells; 0.001 μg/ml, E/T 10:1, TDS, without stimulator cells): 3.9%
- % Lysis (L5178Y target cells; 0.01 μg/ml, E/T 10:1, TDS, without stimulator cells): 3.5%
- % Lysis (L5178Y target cells; 0.01 μg/ml, E/T 100:1, TDS, without stimulator cells): 26.0%
- % Lysis (L5178Y target cells; 0.1 μg/ml, E/T 10:1, TDS, without stimulator cells): 3.5%
- % Lysis (L5178Y target cells; 0.1 μg/ml, E/T 30:1, TDS, with stimulator cells): 51.0%
- % Lysis (L5178Y target cells; 0.1 μg/ml, E/T 100:1, TDS, with stimulator cells): 79.0%
- % Lysis (L5178Y target cells; 1.0 μg/ml, E/T 10:1, TDS, without stimulator cells): 4.6%
- % Lysis (L5178Y target cells; 1.0 μg/ml, E/T 30:1, TDS, with stimulator cells): 46.0%
- % Lysis (L5178Y target cells; 1.0 μg/ml, E/T 30:1, TDS, without stimulator cells): 20.0%
- % Lysis (L5178Y target cells; 10 μg/ml, E/T 6.25:1, TDS, without stimulator cells): .7%
- % Lysis (L5178Y target cells; 10 μg/ml, E/T 10:1, TDS, without stimulator cells): 4.6%
- % Lysis (L5178Y target cells; 10 μg/ml, E/T 12.5:1, TDS, without stimulator cells): 6.9%
- % Lysis (L5178Y target cells; 10 μg/ml, E/T 25:1, TDS, with stimulator cells): 72.0%
- % Lysis (L5178Y target cells; 10 μg/ml, E/T 25:1, TDS, without stimulator cells): 8.1%
- % Lysis (L5178Y target cells; 10 μg/ml, E/T 30:1, TDS, with stimulator cells): 42.0%
- % Lysis (L5178Y target cells; 100 μg/ml, E/T 6.25:1, TDS, without stimulator cells): 6.1%
- % Lysis (L5178Y target cells; 100 μg/ml, E/T 10:1, TDS, without stimulator cells): 8.6%
- % Lysis (L5178Y target cells; 100 μg/ml, E/T 100:1, TDS, without stimulator cells): 42.0%
- % Lysis (L5178Y target cells; E + D, E/T 10:1, TDS effectors, no stimulators): 9.0%
- enhancement of CTL activity (in words) (L5178Y target cells; L5178Y target, TDS effectors with stimulator cells): significant specific enhancement of CTL activity of effector cells in the presence of stimulator cells
- % Lysis (L5178Y target cells; N + S + D, E/T 30:1, normal spleen cells + stimulators): -9.7%
- % Lysis (L5178Y target cells; N + S + D, E/T 100:1, normal spleen cells + stimulators): -9.5%
- CTL activity (in words) (L5178Y target cells; TDS 10 days after challenge): significant increase in CTL activity
- Lymphocyte Stimulation Index, Control (no mitogen) (spleen lymphocytes; 5 μg/well): 1.8
- Lymphocyte Stimulation Index, Control (no mitogen) (spleen lymphocytes; 50 μg/well): .20
- Lymphocyte Stimulation Index, Control (no mitogen) (spleen lymphocytes; 100 μg/well): .20
- Lymphocyte Stimulation Index, Control (no mitogen) (spleen lymphocytes; .001 μg/well): 3.8
- Lymphocyte Stimulation Index, Control (no mitogen) (spleen lymphocytes; .01 μg/well): 3.2
- Lymphocyte Stimulation Index, Control (no mitogen) (spleen lymphocytes; .1 μg/well): 3.2

Compound: 2-furylbutyrolactone:succinimide [Cpd. 2]
- % Lysis (L5178Y target cells; 0.1 μg/ml, E/T 12.5:1, pre-challenge TDS, with stimulator cells): 47.5%
- % Lysis (L5178Y target cells; 0.1 μg/ml, E/T 12.5:1, pre-challenge TDS, without stimulator cells): 16.5%
- % Lysis (L5178Y target cells; 0.1 μg/ml, E/T 25:1, pre-challenge TDS, with stimulator cells): 64.0%
- % Lysis (L5178Y target cells; 0.1 μg/ml, E/T 25:1, pre-challenge TDS, without stimulator cells): 29.5%
- % Lysis (L5178Y target cells; 0.1 μg/ml, E/T 50:1, pre-challenge TDS, with stimulator cells): 69.5%
- % Lysis (L5178Y target cells; 0.1 μg/ml, E/T 50:1, pre-challenge TDS, without stimulator cells): 43.5%
- % Lysis (L5178Y target cells; 0.1 μg/ml, E/T 100:1, pre-challenge TDS, with stimulator cells): 74.5%
- % Lysis (L5178Y target cells; 0.1 μg/ml, E/T 100:1, pre-challenge TDS, without stimulator cells): 48.0%
- % Lysis (L5178Y target cells; 1 μg/ml, E/T 12.5:1, pre-challenge TDS, with stimulator cells): 58.0%
- % Lysis (L5178Y target cells; 1 μg/ml, E/T 25:1, pre-challenge TDS, with stimulator cells): 69.5%
- % Lysis (L5178Y target cells; 1 μg/ml, E/T 50:1, pre-challenge TDS, with stimulator cells): 72.5%
- % Lysis (L5178Y target cells; 1 μg/ml, E/T 100:1, pre-challenge TDS, with stimulator cells): 75.5%
- % Lysis (L5178Y target cells; 10 μg/ml, E/T 12.5:1, pre-challenge TDS, with stimulator cells): 58.5%
- % Lysis (L5178Y target cells; 10 μg/ml, E/T 12.5:1, pre-challenge TDS, without stimulator cells): 26.5%
- % Lysis (L5178Y target cells; 10 μg/ml, E/T 25:1, pre-challenge TDS, with stimulator cells): 72.5%
- % Lysis (L5178Y target cells; 10 μg/ml, E/T 25:1, pre-challenge TDS, without stimulator cells): 40.0%
- % Lysis (L5178Y target cells; 10 μg/ml, E/T 50:1, pre-challenge TDS, with stimulator cells): 72.5%
- % Lysis (L5178Y target cells; 10 μg/ml, E/T 50:1, pre-challenge TDS, without stimulator cells): 56.5%
- % Lysis (L5178Y target cells; 10 μg/ml, E/T 100:1, pre-challenge TDS, with stimulator cells): 73.5%
- % Lysis (L5178Y target cells; 10 μg/ml, E/T 100:1, pre-challenge TDS, without stimulator cells): 61.5%
- % Lysis (L5178Y target cells; 100 μg/ml, E/T 12.5:1, pre-challenge TDS, with stimulator cells): 47.0%
- % Lysis (L5178Y target cells; 100 μg/ml, E/T 25:1, pre-challenge TDS, with stimulator cells): 65.0%
- % Lysis (L5178Y target cells; 100 μg/ml, E/T 50:1, pre-challenge TDS, with stimulator cells): 73.5%
- % Lysis (L5178Y target cells; 100 μg/ml, E/T 100:1, pre-challenge TDS, with stimulator cells): 78.5%
- CTL activity (in words) (L5178Y target cells; pre-challenge TDS): increase in CTL activity
- Lymphocyte Stimulation Index, Con-A (spleen lymphocytes; 1 μg/well): 147
- Lymphocyte Stimulation Index, Control (no mitogen) (spleen lymphocytes; 1 μg/well): .92
- Lymphocyte Stimulation Index, PHA (spleen lymphocytes; 1 μg/well): 25.4
- Lymphocyte Stimulation Index, Con-A (spleen lymphocytes; 5 μg/well): 148
- Lymphocyte Stimulation Index, Control (no mitogen) (spleen lymphocytes; 5 μg/well): 1.2
- Lymphocyte Stimulation Index, PHA (spleen lymphocytes; 5 μg/well): 29.8
- Lymphocyte Stimulation Index, Con-A (spleen lymphocytes; 10 μg/well): 164
- Lymphocyte Stimulation Index, Control (no mitogen) (spleen lymphocytes; 10 μg/well): 1.1
- Lymphocyte Stimulation Index, PHA (spleen lymphocytes; 10 μg/well): 38.8
- Lymphocyte Stimulation Index, Con-A (spleen lymphocytes; 50 μg/well): 218
- Lymphocyte Stimulation Index, Control (no mitogen) (spleen lymphocytes; 50 μg/well): .80
- Lymphocyte Stimulation Index, PHA (spleen lymphocytes; 50 μg/well): 45.8
- Lymphocyte Stimulation Index, Con-A (spleen lymphocytes; 100 μg/well): 144
- Lymphocyte Stimulation Index, Control (no mitogen) (spleen lymphocytes; 100 μg/well): .49
- Lymphocyte Stimulation Index, PHA (spleen lymphocytes; 100 μg/well): 3.83
- effect on Con-A response (in words) (spleen lymphocytes; in vitro, Con-A): the 200 μg/well dose had a stimulatory effect; also recorded: the 400 μg/well doses had an anti-proliferative effect
